Laboratory results as given in patent EP0237495A2, “Halogenides of the ester of 2,N,N,N-dimethyl-alkyl-amino-ethanol with substituted acetic acid and pharmaceutical compositions having antiinflammatory and antiseptic activities containing same” (Sigma-Tau Industrie Farmaceutiche Riunite S.p.A., priority 1986, dated 1987).

Experiments:
Saccharomyces cerevisiae = type: cell-based; details: Saccharomyces cerevisiae BB 0193
Pseudomonas aeruginosa = type: cell-based; details: ATCC14502; Pseudomonas aeruginosa ATCC 14502
Bacillus antracis = type: cell-based
Streptococcus pyogenes = type: cell-based; details: ATCC12380; Streptococcus pyogenes ATCC 12380
Candida utilis = type: cell-based; details: Williopsis jadinii; Candida utilis BB 0173
Cryptococcus neoformans = type: cell-based; details: Cryptococcus neoformans ISM 7182
[1] = test system: Bordetella bronchiseptica; type: cell-based; details: ATCC4617; Bordetella bronchiseptica ATCC 4617
Sarcina lutea = type: cell-based; details: Micrococcus luteus, ATCC9341; Sarcina lutea ATCC 9341
Rhodotorula rubra = type: cell-based; details: Rhodotorula rubra ISM 7198
Candida albicans = type: cell-based; details: ATCC10231; Candida albicans ATCC 10231
Streptococcus faecalis = type: cell-based; details: Enterococcus faecalis, ATCC8043; Streptococcus faecalis ATCC 8043
Pseudomonas maltophilia = type: cell-based; details: Stenotrophomonas maltophilia, ATCC13637; Pseudomonas maltophilia ATCC 13637
Staphylococcus aureus = type: cell-based; details: ATCC6538P; Staphylococcus aureus ATCC 6538P
Klebsiella pneumoniae = type: cell-based; details: ATCC10031; Klebsiella pneumoniae ATCC 10031
Proteus vulgaris = type: cell-based; details: ATCC6897; Proteus vulgaris ATCC 6897
Escherichia coli = type: cell-based; details: Escherichia coli K 12
Penicillium funicolosum = type: cell-based; details: ATCC9644; Penicillium funicolosum ATCC 9644
Bacillus subtilis = type: cell-based; details: ATCC6633; Bacillus subtilis ATCC 6633
Aspergillus niger = type: cell-based; details: ATCC9642; Aspergillus niger ATCC 9642
[2] = test system: Staphylococcus epidermidis; type: cell-based; details: Staphylococcus epidermidis BB 0223
[3] = test system: acetic acid-induced peritoneal exudation; test: Antiexudative activity (acetic acid-induced peritoneal exudation); type: in vivo; details: rat, 1 hour before i.p. 1% acetic acid
Description: The test was carried out in the rat. The products were orally administered 1 hour before the intraperitoneal injection of 0.5 ml of 1% acetic acid. Along with the irritant agent, 1 ml of 0,1% Blue Evans was injected i.v. to the rats. The same procedure as that described above was followed for collecting the peritoneal exudate and rating the irritation degree.

rat peritoneum = details: in vivo, ip
rat subcutaneous tissue = test: Topical tolerability in rat subcutaneous tissue; type: in vivo; set-up: key: 0: no response; 1: moderate response; 2: sharp response; 3: marked response; 4: extreme response; details: 1 ml of 1% suspension s.c., arbitrary scale 0-4; for Irritation degree 4h: 4 hours after administration; for Irritation degree 24h: 24 hours after administration
Description: The test was carried out on rats using two different test procedures. The products were tested at 1% concentration. According to the first procedure, 1 ml of the test suspensions were injected subcutaneously (s.c.) in the side of animals. 4 or 24 hours following administration, the animals were sacrificed, and the degree of subcutaneous irriration estimated.
The presence of erythema, oedema and necrosis was assessed based on the following arbitrary rating scale • - 0 : no response • - 1 : moderate response • - 2 : sharp response • - 3 : marked response • - 4 : extreme response

in vivo = details: mouse, ip
Description: (§1) The test was carried out in the mouse. The products were administered by intraperitoneal injection. The death rate was assessed daily over a period of 14 days following treatment.

mouse = test: in vivo; details: ip
Description: as §1

Compound | MIC (Saccharomyces cerevisiae) | MIC (Pseudomonas aeruginosa) | MIC (Bacillus antracis) | MIC (Streptococcus pyogenes) | MIC (Candida utilis) | MIC (Cryptococcus neoformans) | MIC [1] | MIC (Sarcina lutea) | MIC (Rhodotorula rubra) | MIC (Candida albicans) | MIC (Streptococcus faecalis) | MIC (Pseudomonas maltophilia) | MIC (Staphylococcus aureus) | MIC (Klebsiella pneumoniae) | MIC (Proteus vulgaris) | MIC (Escherichia coli) | MIC (Penicillium funicolosum) | MIC (Bacillus subtilis) | MIC (Aspergillus niger) | MIC [2] | other results
N=C(NCCCCCCNC(=N)NC(=N)Nc1ccc(Cl)cc1)NC(=N)Nc1ccc(Cl)cc1 [Chlorexidine, Chlorexidine gluconate, reference compound] | 80 µg/mL | 80 µg/mL | 20 µg/mL | 10 µg/mL | 40 µg/mL | 40 µg/mL | 40 µg/mL | 20 µg/mL | 40 µg/mL | 20 µg/mL | 20 µg/mL | 80 µg/mL | ≤ 5 µg/mL | 40 µg/mL | 40 µg/mL | 10 µg/mL | > 80 µg/mL | ≤ 5 µg/mL | 80 µg/mL | 10 µg/mL | 
CCCCCCCCCCCC[N+](C)(C)CCOC(=O)Cc1c(C)n(C(=O)c2ccc(Cl)cc2)c2ccc(OC)cc12 [RE 9, iodide of the ester of 2-N,N,N-dimethyl-dodecyl, amino-ethanol with 1-(p-chlorobenzoyl)-2-methyl-5-methoxy-3-indolyl-acetic acid] | ≤ 5 µg/mL | 80 µg/mL | ≤ 5 µg/mL | ≤ 5 µg/mL | ≤ 5 µg/mL | ≤ 5 µg/mL | 80 µg/mL | ≤ 5 µg/mL | ≤ 5 µg/mL | ≤ 5 µg/mL | ≤ 5 µg/mL | 80 µg/mL | ≤ 5 µg/mL | 80 µg/mL | 20 µg/mL | 80 µg/mL | ≤ 5 µg/mL | ≤ 5 µg/mL | ≤ 5 µg/mL | ≤ 5 µg/mL | % Inhibition with respect to controls ([3]; 200 mg/kg orally): 35%; % Inhibition with respect to controls ([3]; 400 mg/kg orally): 40%; Percent increase in response with respect to controls (rat peritoneum): 95%; Irritation degree 4h (rat subcutaneous tissue): 2; Irritation degree 24h (rat subcutaneous tissue): 2; mortality at 336 h (in vivo; 31.2 mg/kg): 0%; mortality at 336 h (in vivo; 62.5 mg/kg): 83.3%; mortality at 336 h (in vivo; 125 mg/kg): 100%; mortality at 336 h (in vivo; 250 mg/kg): 83.3%; mortality at 336 h (in vivo; 500 mg/kg): 100%; Mortality (mouse; 62.5 mg/kg): 5/6; Mortality (mouse; 125 mg/kg): 6/6; Mortality (mouse; 250 mg/kg): 5/6; Mortality (mouse; 500 mg/kg): 6/6
CC(C)Cc1ccc(C(C)C(=O)O)cc1 (stereo not drawn) [ibuprofen, Ibuprofen, reference compound] |  |  |  |  |  |  |  |  |  |  |  |  |  |  |  |  |  |  |  |  | % Inhibition with respect to controls ([3]; 200 mg/kg orally): 60%; % Inhibition with respect to controls ([3]; 400 mg/kg orally): 58%
CCCCCCCC[N+](C)(C)CCOC(=O)C(C)c1ccc(CC(C)C)cc1 (stereo not drawn) [AF 150, bromide of the ester of 2-N,N,N-dimethyl-octyl-amino-ethanol with p-isobutylphenyl-alpha-methylacetic acid] | ≤ 5 µg/mL | 10 µg/mL | 10 µg/mL | 20 µg/mL | ≤ 5 µg/mL | ≤ 5 µg/mL | 10 µg/mL | ≤ 5 µg/mL | ≤ 5 µg/mL | ≤ 5 µg/mL | 20 µg/mL | 40 µg/mL | ≤ 5 µg/mL | 10 µg/mL | 10 µg/mL | 80 µg/mL | 10 µg/mL | 10 µg/mL | 10 µg/mL | 10 µg/mL | % Inhibition with respect to controls ([3]; 200 mg/kg orally): 37%; % Inhibition with respect to controls ([3]; 400 mg/kg orally): 51%; Percent increase in response with respect to controls (rat peritoneum): 185%; Irritation degree 4h (rat subcutaneous tissue): 2; Irritation degree 24h (rat subcutaneous tissue): 1; mortality at 336 h (in vivo; 7.8 mg/kg): 0%; mortality at 336 h (in vivo; 15.6 mg/kg): 0%; mortality at 336 h (in vivo; 31.2 mg/kg): 100%; mortality at 336 h (in vivo; 62.5 mg/kg): 100%; mortality at 336 h (in vivo; 125 mg/kg): 83.3%; Mortality (mouse; 7.8 mg/kg): 0/6; Mortality (mouse; 31.2 mg/kg): 6/6; Mortality (mouse; 62.5 mg/kg): 6/6; Mortality (mouse; 125 mg/kg): 5/6
CCCCCCCCCC[N+](C)(C)CCOC(=O)Cc1c(C)n(C(=O)c2ccc(Cl)cc2)c2ccc(OC)cc12 [RE 8, iodide of the ester of 2-N,N,N-dimethyl-decyl --amino-ethanol with 1-(p-chlorobenzoyl)-2-methyl-5-methoxy-3-indolyl-acetic acid] | ≤ 5 µg/mL | 80 µg/mL | 10 µg/mL | 10 µg/mL | ≤ 5 µg/mL | ≤ 5 µg/mL | 80 µg/mL | 10 µg/mL | ≤ 5 µg/mL | ≤ 5 µg/mL | 10 µg/mL | 80 µg/mL | ≤ 5 µg/mL | > 80 µg/mL | 80 µg/mL | > 80 µg/mL | ≤ 5 µg/mL | 10 µg/mL | ≤ 5 µg/mL | ≤ 5 µg/mL | % Inhibition with respect to controls ([3]; 200 mg/kg orally): 31%; % Inhibition with respect to controls ([3]; 400 mg/kg orally): 46%; Percent increase in response with respect to controls (rat peritoneum): 97%; Irritation degree 4h (rat subcutaneous tissue): 2; Irritation degree 24h (rat subcutaneous tissue): 2; mortality at 336 h (in vivo; 7.8 mg/kg): 0%; mortality at 336 h (in vivo; 15.6 mg/kg): 0%; mortality at 336 h (in vivo; 31.2 mg/kg): 100%; mortality at 336 h (in vivo; 62.5 mg/kg): 100%; mortality at 336 h (in vivo; 125 mg/kg): 83.3%; mortality at 336 h (in vivo; 250 mg/kg): 100%; Mortality (mouse; 7.8 mg/kg): 0/6; Mortality (mouse; 31.2 mg/kg): 6/6; Mortality (mouse; 62.5 mg/kg): 6/6; Mortality (mouse; 125 mg/kg): 5/6; Mortality (mouse; 250 mg/kg): 6/6
